Read-outs that look alike come from different tables or passages of the source.
What was measured:
[1] = test system: isolated mouse pancreatic acini; test: Caerulein-induced injury in isolated pancreatic acini; assay type: cell-based; settings: for caerulein-induced damage (release of trypsin, IL-1β and LDH): 1, 5 or 10 mM sodium phosphate, pH 7.4, caerulein 10 nM for 30 minutes
Source text: To evaluate the effects of phosphate on acinar cell function pancreatic acini in vitro were examined High concentrations of caerulein in vitro induce pancreatic injury similar to the effects observed in vivo and this method has been used to study direct effects on pancreatic acinar cells. Specifically, caerulein causes pancreatitis by hyperstimulating the acinar cells through the CCK1 receptor. In isolated pancreatic acini, caerulein causes trypsin activation, generation of the proinflammatory cytokine cytosolic […], and cell necrosis as manifest by LDH release. Each of these pathological results is seen with caerulein hyperstimulation in vivo.
It was observed that phosphate supplementation, independent of its buffering effects, reduced caerulein-induced LDH release, a marker of cell damage (FIG. 4). In addition, it was sought to determine if lack of ATP contributes to pancreatitis and whether the protective effects of phosphate are through restoration of intracellular ATP levels. […] Isolated mouse pancreatic acini were treated with caerulein in buffer containing Na2HPO4 concentrations of 1-10 mM. Supernatant LDH was measured by commercial LDH assay. Cytosolic ATP levels were measured using a commercially available fluorometric assay. *P<0.05, **<0.01, ***<0.001.
All solutions were adjusted to pH 7.4. A supramaximal concentration of caerulein (10 nM) was added for 30 minutes as indicated after which media were analyzed for release of trypsin, IL-1β and LDH. (*P<0.05, **P<0.01, ***P<0.001).
Mitochondrial membrane potential was measured in isolated pancreatic acini using tetramethylrhodamine ethyl ester (TMRE) fluorescence.
Specifically, isolated pancreatic acini were loaded with the mitochondrial fluorescent dye TMRE and incubated in phosphate-free buffer with a supramaximal concentration of caerulein (10 nM). TMRE fluorescence and intracellular ATP levels were measure after 30 minutes. *P<0.05, ****P<0.0001.
Isolated pancreatic acini loaded with TMRE were incubated in buffer with 0 or 5 mM phosphate (left panel). Effects of increasing phosphate concentrations on ATP production are shown in the right panel. *P<0.05, **P<0.01, ****P<0.0001. These findings illustrate the requirement for Pi in maintaining and restoring mitochondrial function and ATP synthesis under the stress of caerulein hyperstimulation.

[2] = test system: pancreatic acini from C57BL/6J mice; assay type: cell-based; settings: 50 mM ethanol
Experimental: In order to determine the effect of ethanol exposure and phosphate levels on acinar cell function, studies were conducted in vitro. Pancreata was harvested from ND-fed and LPD-fed C57BL/6J mice and isolated acinar cells using phosphate-free buffer solutions. Acinar cell function was assessed at various concentrations of ethanol (0-50 mM).
Next, it was investigated as to whether phosphate supplementation could preserve pancreatic acinar cell function. Pancreatic acini from LPD-fed mice were isolated in phosphate-free buffer and treated with 50 mM ethanol and 0-5 mM Na2HPO4.
To further explore the mechanism underlying the effect of phosphate on ethanol-induced acinar cell dysfunction, cellular ATP content and mitochondrial function was investigated.
In order to determine if phosphate sensitizes mitochondria to the effects of alcohol, we measured TMRE fluorescence intensity, a measure of mitochondrial membrane potential that indicates normal mitochondrial function.
Pancreatic acini from LPD-fed mice were again isolated in phosphate-free buffer and treated with 50 mM ethanol and 0-5 mM Na2HPO4.

caerulein-treated mice = test: Caerulein-induced pancreatitis in mice; assay type: in vivo; settings: 250 μg/g Na2HPO4 1 hour after first of 6 hourly caerulein injections (50 ng/g); vs normal saline
Source text: Caerulein-induced pancreatitis in mice is an established model of acute experimental pancreatitis. Hyperstimulation of the pancreas by cholecystokinin or its analogue caerulein is a commonly used model of experimental acute pancreatitis in rodents. Caerulein produces mild to moderate, non-fatal pancreatitis that resolves spontaneously.
As shown in FIGS. 3A-3C, phosphate supplementation reduced all parameters of pancreatitis following caerulein administration including serum amylase levels (FIG. 3A), pancreatic MPO levels (FIG. 3B) and pancreatic histology (FIG. 3C). Specifically, mice (C56BL/6 adult mice) were treated with 6 hourly injections of caerulein sulfate (50 ng/g) by intraperitoneal injection. Sodium phosphate (250 μg/g Na2HPO4) and normal saline (NS) were given 1 hour after the first injection. The study was terminated 1 hour after the last caerulein injection at which time, blood and pancreas tissue are collected for measurements of serum amylase, and pancreatic edema, MPO, and histological pancreatitis severity. Pancreatic myeloperoxidase (MPO) and serum amylase levels were measured by commercially available assays. **P<0.01 vs. normal saline in caerulein-treated mice.

Piezol = molecular target: T1, Piezol (Mus musculus, UniProt E2JF22); test: Yoda1 activation of Piezol in pancreatic acinar cells; assay type: cell-based, mice
T1 construct: endogenous in cells; host or cells: isolated pancreatic acini / acinar cells (primary, mouse)
T1 sequence (E2JF22 whole entry): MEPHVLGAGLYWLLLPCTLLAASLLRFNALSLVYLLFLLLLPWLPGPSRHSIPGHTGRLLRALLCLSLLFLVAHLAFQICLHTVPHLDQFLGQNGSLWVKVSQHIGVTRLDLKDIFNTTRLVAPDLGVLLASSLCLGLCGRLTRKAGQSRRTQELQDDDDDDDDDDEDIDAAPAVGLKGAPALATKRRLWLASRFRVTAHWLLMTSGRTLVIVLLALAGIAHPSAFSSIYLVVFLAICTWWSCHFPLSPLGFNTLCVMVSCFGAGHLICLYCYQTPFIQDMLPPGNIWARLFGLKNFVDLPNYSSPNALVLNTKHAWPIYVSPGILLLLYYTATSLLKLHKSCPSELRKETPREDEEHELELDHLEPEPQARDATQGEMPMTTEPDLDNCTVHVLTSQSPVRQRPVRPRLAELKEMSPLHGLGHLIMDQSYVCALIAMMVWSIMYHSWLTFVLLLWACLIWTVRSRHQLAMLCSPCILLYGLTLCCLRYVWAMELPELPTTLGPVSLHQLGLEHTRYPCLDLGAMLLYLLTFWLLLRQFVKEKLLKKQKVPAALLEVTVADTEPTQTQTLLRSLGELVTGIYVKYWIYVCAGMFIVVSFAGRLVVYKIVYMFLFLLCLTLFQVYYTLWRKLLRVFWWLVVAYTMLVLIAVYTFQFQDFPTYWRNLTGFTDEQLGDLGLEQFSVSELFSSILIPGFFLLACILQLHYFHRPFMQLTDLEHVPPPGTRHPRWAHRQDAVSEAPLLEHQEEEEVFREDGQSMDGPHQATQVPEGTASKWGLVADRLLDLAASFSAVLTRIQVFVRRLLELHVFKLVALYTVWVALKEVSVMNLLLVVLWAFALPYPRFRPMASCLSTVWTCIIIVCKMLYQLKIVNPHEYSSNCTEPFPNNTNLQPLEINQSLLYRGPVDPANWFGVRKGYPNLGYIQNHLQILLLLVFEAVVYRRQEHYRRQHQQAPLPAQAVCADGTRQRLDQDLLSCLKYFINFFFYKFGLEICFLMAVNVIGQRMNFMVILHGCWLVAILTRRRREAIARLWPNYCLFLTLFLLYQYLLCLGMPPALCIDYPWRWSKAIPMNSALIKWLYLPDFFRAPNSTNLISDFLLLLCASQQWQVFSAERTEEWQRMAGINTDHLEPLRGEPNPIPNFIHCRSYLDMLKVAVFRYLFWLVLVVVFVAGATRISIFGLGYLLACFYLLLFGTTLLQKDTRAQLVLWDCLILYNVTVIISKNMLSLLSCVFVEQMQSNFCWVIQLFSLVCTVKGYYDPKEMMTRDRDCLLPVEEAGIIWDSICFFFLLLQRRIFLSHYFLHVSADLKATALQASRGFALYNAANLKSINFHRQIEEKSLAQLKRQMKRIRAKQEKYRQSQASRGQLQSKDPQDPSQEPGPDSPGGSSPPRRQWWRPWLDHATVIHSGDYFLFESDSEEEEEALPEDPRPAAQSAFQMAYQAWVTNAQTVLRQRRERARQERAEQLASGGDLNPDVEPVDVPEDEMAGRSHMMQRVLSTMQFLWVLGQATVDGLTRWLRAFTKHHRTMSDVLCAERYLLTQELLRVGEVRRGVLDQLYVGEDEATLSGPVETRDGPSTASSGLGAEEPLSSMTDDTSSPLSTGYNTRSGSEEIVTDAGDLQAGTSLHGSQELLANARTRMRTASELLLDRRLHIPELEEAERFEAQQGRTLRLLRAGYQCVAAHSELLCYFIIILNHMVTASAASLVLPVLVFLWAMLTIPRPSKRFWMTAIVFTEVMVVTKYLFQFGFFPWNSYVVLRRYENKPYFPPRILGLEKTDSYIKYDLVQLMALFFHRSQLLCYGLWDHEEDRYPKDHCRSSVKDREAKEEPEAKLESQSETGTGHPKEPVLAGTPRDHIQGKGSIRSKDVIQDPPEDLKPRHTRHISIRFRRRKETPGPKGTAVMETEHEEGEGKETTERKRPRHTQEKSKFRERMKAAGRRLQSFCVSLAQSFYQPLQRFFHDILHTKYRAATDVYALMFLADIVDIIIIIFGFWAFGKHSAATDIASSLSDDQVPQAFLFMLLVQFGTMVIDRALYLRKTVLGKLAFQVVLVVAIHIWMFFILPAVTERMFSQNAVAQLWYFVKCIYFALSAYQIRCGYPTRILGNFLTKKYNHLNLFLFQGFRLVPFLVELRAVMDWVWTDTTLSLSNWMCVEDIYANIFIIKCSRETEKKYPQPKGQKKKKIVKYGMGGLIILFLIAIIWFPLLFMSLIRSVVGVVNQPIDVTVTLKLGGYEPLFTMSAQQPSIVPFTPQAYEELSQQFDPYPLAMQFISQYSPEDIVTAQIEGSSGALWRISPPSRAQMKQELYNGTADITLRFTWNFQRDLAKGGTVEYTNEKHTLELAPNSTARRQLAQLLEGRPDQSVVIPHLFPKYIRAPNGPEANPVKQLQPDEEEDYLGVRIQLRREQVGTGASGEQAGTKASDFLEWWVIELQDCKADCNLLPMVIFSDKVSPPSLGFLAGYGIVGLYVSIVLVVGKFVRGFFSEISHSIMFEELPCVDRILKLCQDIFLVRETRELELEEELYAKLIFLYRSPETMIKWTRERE
Experimental: Pathological activation of Piezol leads to [Ca^2+]i overload, mitochondrial dysfunction, trypsinogen activation, and acinar cell necrosis. Moreover, Piezol activation explains how elevation of intrapancreatic duct pressure (e.g., ERCP or gallstone impaction) causes pancreatitis. Piezol can be activated by mechanical pushing or shear stress. A method for studying the effects of shear stress on isolated pancreatic acini in vitro was developed. Pancreatic acini are cultured on Matrigel and placed into a fluid flow chamber. Cells can be loaded with either the calcium sensitive dye, Calcium 6-QF (Molecular Devices), or the active trypsin enzyme substrate BZiPAR [rhodamine 110, bis(CBZ-L-isoleucyl-L-prolyl-L-arginine amide)] (10 μM) and imaged using a fluorescence microscope while fluid flow is regulated to control the level of shear stress.
As shown in FIG. 11(A)-(C), subjecting acinar cells to fluid shear stress at 12 dyne/cm^2 produced a prolonged increase in [Ca^2+]i similar to that seen with supramaximal, pathological concentrations of caerulein and was sufficient to cause trypsin activation. Shear pressure also led to mitochondrial membrane depolarization indicating mitochondrial dysfunction. These effects are specific for Piezol since changes were not observed in Piezol1^aci knockout mice. Yoda1 is a selective agonist for Piezol and can be used to simulate pressure by chemically activating Piezol. […] In order to determine if phosphate might protect against pressure-induced pancreatitis, we observed that phosphate supplementation reduced Yoda1-stimulated elevations in [Ca^2+]i and LDH release.

[3] = test system: ethanol-induced pancreatitis in mice
Source text: These findings raise the question of whether phosphate deficiency contributes to the progression of pancreatitis. This may be particularly relevant to alcohol-induced pancreatitis, given that alcoholic patients are susceptible to hypophosphatemia due to nutritional deficiencies and the effects of alcohol ingestion on phosphate absorption. Therefore, it was hypothesized that low phosphate levels may be predispose to alcohol-induced pancreatic injury. To test this hypothesis, we placed mice on a low phosphate diet and determined their susceptibility to ethanol. Animals were placed on a chow diet containing low amounts of phosphate (Pi) for three weeks. The low phosphate diet (Envigo #TD.140659) was comprised of 0.02% Pi compared to normal chow diet which contained 1% Pi. Serum levels of phosphate declined in mice on a low phosphate diet from normal values of 2.2 mM to 1.4 mM (FIG. 12). In order to determine if the diet rendered mice more sensitive to ethanol, mice were administered ethanol by orogastric gavage at […] (30% ethanol at 10 mL/kg) daily for five days (Control mice were gavaged with water). Mice were euthanized 12 hours after the last dose of ethanol. The pancreatitis severity scoring system is a composite of edema, necrosis, inflammatory cell infiltration and hemorrhage severity as previously published. […]

[4] = test system: pressure-induced pancreatitis; test: ERCP pressure-induced pancreatitis, nicotinic agonists; assay type: in vivo
Source text: GTS-21 (DMXBA) is a derivative of the natural product anabaseine that acts as a partial agonist at neural nicotinic acetylcholine receptors. GTS-21 is 3-2,4-dimethoxybenzylidene anabaseine.

[5] = test system: ERCP pancreatitis in mice; test: ERCP pancreatitis mouse model (retrograde pancreatic duct infusion); assay type: in vivo; settings: mice on low phosphate diet; 200 μg/g intraperitoneal 1 and 4 hours after induction; 24 hours
Source text: For this study, a mouse model of this form of pancreatitis was employed.

[6] = LPD-derived acini, phosphate-free buffer
[7] = caerulein 10 nM, phosphate-free buffer, 30 minutes
[8] = ERCP pressure-induced pancreatic inflammation

Question: Which results are given for `O=P([O-])([O-])O.[Na+].[Na+]` [Na2HPO4]?
Answer: caerulein-induced LDH release ([1]; buffer containing Na2HPO4 1-10 mM): reduced; cytosolic ATP levels ([1]; caerulein-treated acini, Na2HPO4 1-10 mM): restored ATP levels in a dose-dependent fashion; ATP levels ([2]; LPD acini, 0-5 mM Na2HPO4): significantly increased; TMRE fluorescence intensity ([2]; LPD acini, 0-5 mM Na2HPO4): markedly improved; LDH ([2]; LPD acini, 5 mM Na2HPO4): significantly decreased; trypsin activity ([2]; LPD acini, 5 mM Na2HPO4): significantly decreased; pancreatic MPO levels (caerulein-treated mice): reduced; pancreatic histology (caerulein-treated mice): reduced; serum amylase levels (caerulein-treated mice): reduced

Question: What does the source list for `CCO` [ethanol]?
Answer: TMRE fluorescence intensity ([2]; LPD acini): significantly decreased; total cellular ATP levels ([2]; LPD-derived acini): significantly decreased; Lactate dehydrogenase (LDH) [2, 6]: significantly increased; trypsin activity [2, 6]: significantly increased; total cellular ATP levels ([2]; ND-derived acini): not observed; LDH and trypsin activity ([2]; acini from mice on normal diet (ND)): not seen

Question: caerulein was tested. Which ATP production [1, 7] did it give?
Answer: Its ATP production is “reduced ATP production”.

Question: What about the “mitochondrial membrane potential (TMRE fluorescence)” value [1, 7] of the same compound?
Answer: The value was “caused mitochondrial depolarization”.

Question: Which results are given for phosphate?
Answer: Yoda1-stimulated LDH release (Piezol; phosphate supplementation): reduced; Yoda1-stimulated elevations in [Ca2+]i (Piezol; phosphate supplementation): reduced; ethanol-induced injury ([3]; mice on low phosphate diet, sodium phosphate 50 mg/kg gavage daily for 5 days): protects; caerulein-induced damage (release of trypsin, IL-1β and LDH) [1]: improved

Question: Which LDH release (Piezol; Yoda1 25 μM) does the source give for `Clc1cccc(Cl)c1CSc1nnc(-c2cnccn2)s1` [Yoda1] here?
Answer: Its LDH release is “increased”.

Question: What about the “[Ca2+]i” value (Piezol; Yoda1 25 μM) of the same compound?
Answer: The value was “caused an elevation”.

Question: With `COc1ccc(/C=C2\CCCN=C2c2cccnc2)c(OC)c1` [GTS-21, 3-2,4-dimethoxybenzylidene anabaseine] as the compound, how does the “protection of the pancreas against pressure-induced pancreatitis” value ([4]; prior splenectomy) read?
Answer: Its value is “abolished”.

Question: What about the “protection against pressure-induced acute pancreatitis” value ([4]; splenocytes depleted of T cells) of the same compound?
Answer: The value was “do not protect”.

Question: What about the “protection of the pancreas against pressure-induced pancreatitis” value ([4]; systemic administration) of the same compound?
Answer: The value was “significantly protected”.

Question: Which results are given for `CN1CCCC1c1cccnc1` (centres unmarked) [nicotine]?
Answer: histopathology [4, 8]: dose-dependently inhibits; pancreatic MPO levels [4, 8]: dose-dependently inhibits; pancreatic edema [4, 8]: dose-dependently inhibits; serum amylase [4, 8]: dose-dependently inhibits

Question: `O=P(O)(O)O` [sodium phosphate] was tested. Which “mortality of ethanol-treated mice on the low phosphate diet” value ([3]; sodium phosphate 50 mg/kg orogastric gavage daily for 5 days, ethanol 3 mg/kg daily for 5 days) did it give?
Answer: Its value is “significantly reduced”.

Question: And the “pancreatic injury (survival, pancreatic edema)” value [5]?
Answer: The value was “protected”.

Question: With `O=P([O-])(O)O.[Na+]` [NaH2PO4] as the compound, how does the “caerulein-induced damage (release of trypsin, IL-1β and LDH)” value [1] read?
Answer: Its value is “protects”.

Question: And the “mitochondrial function (TMRE fluorescence)” value ([1]; caerulein hyperstimulation, 0 or 5 mM phosphate)?
Answer: The value was “dose-dependently restored”.

Question: And the ATP synthesis ([1]; caerulein hyperstimulation, increasing phosphate concentrations)?
Answer: Its ATP synthesis is “dose-dependently restored”.

From patent US20220331357A1, “COMPOSITIONS AND METHODS FOR THE PREVENTION AND TREATMENT OF PANCREATITIS” (Duke University, priority 2019, published 2022)
